Results: PMC3722588 (Journal of the American Chemical Society, 2013)

Target: T184C MMP12 catalytic domain (Mus musculus, UniProt P34960, T184C)
Experiment: Gel labeling of recombinant enzyme spiked in rat liver lysates
Type: binding
Details: 10 μM pretreatment before TND124, rat liver lysates

Chain of T184C MMP12 catalytic domain (P34960 29-267 T184C): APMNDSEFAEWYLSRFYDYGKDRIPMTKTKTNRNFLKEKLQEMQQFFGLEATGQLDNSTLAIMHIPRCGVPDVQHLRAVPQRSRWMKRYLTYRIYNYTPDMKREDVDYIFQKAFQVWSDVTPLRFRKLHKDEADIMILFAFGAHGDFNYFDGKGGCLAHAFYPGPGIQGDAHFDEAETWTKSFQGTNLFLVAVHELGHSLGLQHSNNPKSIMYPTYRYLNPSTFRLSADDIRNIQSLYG

In the case of CNC(=O)[C@H](Cc1c[nH]c2ccccc12)NC(=O)[C@@H](CC(=O)NO)CC(C)C [GM6001], the “Blocking of TND124 labeling by pretreatment” value is reported as “completely blocked labeling”.
